What all share (test): Antibacterial activity, minimum inhibition concentration (method of The Chemotherapy Association, Japan)
Common to all, as to assay type: cell-based

One assay has as its system Proteus rettgeri NIH-96. To be noted: for MIC: Providencia rettgeri, NIH96, strain I: Proteus rettgeri NIH-96, read-out: minimum inhibition concentration; for minimum inhibition concentration: strain I: Proteus rettgeri NIH-96. The source says: (§1) The abbreviations A to P will be used in the following Tables 2 to 8.
(§2) Test results are shown in terms of the minimum inhibition concentration (µg/mℓ.) in the following Tables 2 to 8.

A further assay deals with Proteus vulgaris OX-19. To be noted: for MIC: Proteus vulgaris, OX19, strain H: Proteus vulgaris OX-19, read-out: minimum inhibition concentration; for minimum inhibition concentration: strain H: Proteus vulgaris OX-19.
From the text: as §1, §2

Assay [1] has as its system Bacillus subtilis ATCC 6633. To be noted: for MIC: Bacillus subtilis, ATCC6633, strain B: Bacillus subtilis ATCC 6633, read-out: minimum inhibition concentration; for minimum inhibition concentration: strain B: Bacillus subtilis ATCC 6633. As for the experimental part: (§3) Antibacterial activities of the compounds according to this invention, which had been prepared in the preceding Examples, were measured according to the method prescribed by The Committee of Amendment of "The method for measurement of the minimum inhibition concentration", The Chemotherapy Association, Japan (See Chemotherapy, Vol. 22, No. 6, pp. 1126 - 1128 (1974) and Vol. 29, No. 1, pp. 76 - 79 (1981)).
as §1, §2

For assay [2], the system named is Pseudomonas aeruginosa NCTC-10490. To be noted: for MIC: Pseudomonas aeruginosa; for minimum inhibition concentration: strain M: Pseudomonas aeruginosa NCTC-10490. As for the experimental part: as §3, §1, §2
The subject of a further assay is Serratia marcescens 1023. The procedure:
as §3, §1, §2

For assay [3], the system named is Proteus mirabillis B-30-2 IFO-3849. The procedure: as §3, §1, §2
The subject of assay [4] is Enterobactor cloacae NCTC-9394. To be noted: strain N: Enterobactor cloacae NCTC-9394; for MIC: read-out: minimum inhibition concentration. The procedure:
as §3, §1, §2

Assay [5] has as its system Serratia marcescens IFO-3736. To be noted: for MIC: Serratia marcescens; for minimum inhibition concentration: strain F: Serratia marcescens IFO-3736. The procedure:
as §3, §1, §2

The subject of assay [6] is Staphylococcus aureus 6538-P. To be noted: strain A: Staphylococcus aureus 6538-P; for MIC: read-out: minimum inhibition concentration. As for the experimental part:
as §3, §1, §2

For assay [7], the system named is Salmonella typhimurium 3173. To be noted: for MIC: Salmonella enterica, TYPHIMURIUM
As for the experimental part:
as §3, §1, §2

A further assay deals with Proteus morgani Kono. To be noted: for MIC: read-out: minimum inhibition concentration. The procedure: as §3, §1, §2
Assay [8] relates to Citrobactor freundii NIH-10018 -68. To be noted: strain O: Citrobactor freundii NIH-10018 -68; for MIC: read-out: minimum inhibition concentration. The procedure: as §3, §1, §2
A further assay deals with Escherichia coli NIHJ. To be noted: for MIC: Escherichia coli, read-out: minimum inhibition concentration. As for the experimental part: as §3, §1, §2
The next assay has as its system Escherichia coli NIHJC-2. To be noted: for MIC: Escherichia coli; for minimum inhibition concentration: strain L: Escherichia coli NIHJC-2. As for the experimental part: as §3, §1, §2
Another assay concerns Klebsiella pneumoniae. To be noted: strain C: Klebsiella pneumoniae; for MIC: Klebsiella pneumoniae, read-out: minimum inhibition concentration. The procedure:
as §3, §1, §2

[9] abbreviates: NCTC10490, strain M: Pseudomonas aeruginosa NCTC-10490, read-out: minimum inhibition concentration.
[10] abbreviates: strain G: Proteus mirabillis B-30-2 IFO-3849, read-out: minimum inhibition concentration.
The mark [11] stands for this setting: IFO3736, strain F: Serratia marcescens IFO-3736, read-out: minimum inhibition concentration.
Where [12] appears, read: strain D: Salmonella typhimurium 3173, read-out: minimum inhibition concentration.
The mark [13] stands for this setting: strain K: Escherichia coli NIHJ.
[14] abbreviates: NIHJC2, strain L: Escherichia coli NIHJC-2, read-out: minimum inhibition concentration.
Where [15] appears, read: strain G: Proteus mirabillis B-30-2 IFO-3849.
Setting [16] is: strain D: Salmonella typhimurium 3173.

≈ marks a conversion by molar mass, not a printed value. Where “and” joins values, the source holds several entries; their conditions need not be identical. Equal values may be shown once. Where a name gives a salt, the structure may show the parent alone. Read-outs that look alike come from different tables or passages of the source.

Regarding `CC(=O)OCC1=C(C(=O)O)N2C(=O)C(NC(=O)C(=C(Cl)Cl)c3ccc(C)cc3)[C@H]2SC1` (stereo partly drawn) [Compound 28, 7-[2-dichloromethylene-2-(4-methylphenyl)acetamido]-3-acetoxymethyl-3-cephem-4-carboxylic acid], the MIC with Proteus rettgeri NIH-96 is 3.12 µg/mL (≈ 6.44 µM); in the assay on Proteus vulgaris OX-19, 100 µg/mL (≈ 206 µM); in assay [1], 3.12 µg/mL (≈ 6.44 µM); in [2] (setting [9]) it was 50 µg/mL (≈ 103 µM); with Serratia marcescens 1023 (Serratia marcescens, 1023, strain E: Serratia marcescens 1023, read-out: minimum inhibition concentration), 6.25 µg/mL (≈ 12.9 µM); in assay [3] (setting [10]), more than 100 µg/mL. Besides, the MIC (in assay [4]; in [5] (setting [11]); in assay [6]; in assay [7] (setting [12]); in the assay with Proteus morgani Kono (strain J: Proteus morgani Kono); in assay [8]) was more than 100 µg/mL each time. Further, the MIC in the assay with Escherichia coli NIHJ (setting [13]), with Escherichia coli NIHJC-2 (setting [14]) and in the assay on Klebsiella pneumoniae was more than 100 µg/mL each time.

On to `CSc1nnc(SCC2=C(C(=O)O)N3C(=O)C(NC(=O)C(=C(Cl)Cl)c4csc(N)n4)C3SC2)s1` (stereo not drawn) [9-(2), 7-[2-dichloromethylene-2-(aminothiazol-4-yl)-acetamido]-3-(2-methylthio-l,3,4-thiadiazol-5-yl) thiomethyl-3-cephem-4-carboxylic acid sodium salt], for which the MIC was less than 0.025 µg/mL in the assay with Proteus rettgeri NIH-96; 0.2 µg/mL with Proteus vulgaris OX-19; 3.12 µg/mL in [1]; 12.5 µg/mL in [2] (setting [9]); 25 µg/mL in assay [3] (setting [10]); 3.12 µg/mL in [4]. Besides, the MIC is 50 µg/mL in assay [5] (setting [11]); 0.78 µg/mL in assay [6]; 12.5 µg/mL in assay [7] (setting [12]); 12.5 µg/mL with Proteus morgani Kono (strain J: Proteus morgani Kono); 12.5 µg/mL in [8]; less than 0.025 µg/mL in the assay on Escherichia coli NIHJ (setting [13]). Besides, the MIC in the assay with Escherichia coli NIHJC-2 (setting [14]) was determined as 25 µg/mL; with Klebsiella pneumoniae, 12.5 µg/mL.

In the case of “7-[2-chloromethylene-2-(2-aminothiazol-4-yl)acetamido]-3-[(2,5-dihydro-6-hydroxy-2-methyl-5-oxo-as-triazin-3-yl)thiomethyl-3-cephem-4-carboxylic acid disodium salt [Compound 22]”, the minimum inhibition concentration in the assay on Proteus vulgaris OX-19 was 0.1 µg/mL; in assay [1], 6.25 µg/mL; in [2], 6.25 µg/mL; in the assay with Serratia marcescens 1023 (strain E: Serratia marcescens 1023), 6.25 µg/mL; in assay [3] (setting [15]), 0.39 µg/mL; in assay [4], 0.39 µg/mL. Further, the minimum inhibition concentration in [5] is 1.56 µg/mL; in [6], 0.78 µg/mL; in assay [7] (setting [16]), 1.56 µg/mL; with Proteus morgani Kono (strain J: Proteus morgani Kono), 0.39 µg/mL; in assay [8], 1.56 µg/mL; in the assay with Escherichia coli NIHJ (setting [13]) it was less than 0.00625 µg/mL. Moreover, the minimum inhibition concentration in the assay on Escherichia coli NIHJC-2 is 3.125 µg/mL; with Klebsiella pneumoniae, 0.78 µg/mL.

With `CC1=C(C(=O)O)N2C(=O)C(NC(=O)C(=C(Cl)Cl)c3csc(N)n3)C2SC1` (stereo not drawn) [8-(3), 7-[2-dichloromethylene-2-(2-aminothiazol-4-yl)-acetamido]-desacetoxycephalosporanic acid sodium salt], the MIC in the assay on Proteus rettgeri NIH-96 was 0.2 µg/mL; in the assay on Proteus vulgaris OX-19, 12.5 µg/mL; in assay [1], 100 µg/mL; in assay [2] (setting [9]), more than 100 µg/mL; in assay [3] (setting [10]) it was 100 µg/mL; in assay [4] it was 100 µg/mL. Also, the MIC is more than 100 µg/mL in assay [5] (setting [11]); 25 µg/mL in assay [6]; more than 100 µg/mL in [7] (setting [12]); more than 100 µg/mL with Proteus morgani Kono (strain J: Proteus morgani Kono); more than 100 µg/mL in [8]; 6.25 µg/mL in the assay on Escherichia coli NIHJ (setting [13]). Also, the values for the MIC in the assay with Escherichia coli NIHJC-2 (setting [14]) and in the assay on Klebsiella pneumoniae were 100 µg/mL and more than 100 µg/mL, respectively.

As for `CN(C)CCn1nnnc1SCC1=C(C(=O)O)N2C(=O)C(NC(=O)C(=C(Cl)Cl)c3csc(N)n3)C2SC1` (stereo not drawn) [10-(1), 7-[2-dichloromethylene-2-(2-aminothiazol-4-yl)-acetamido]-3-[l-(2-dimethylaminoethyl)-lH-tetrazol-5-yl]thiomethyl-3-cephem-4-carboxylic acid], the MIC worked out at 0.05 µg/mL (≈ 0.0824 µM) in the assay on Proteus rettgeri NIH-96; 0.78 µg/mL (≈ 1.29 µM) in the assay with Proteus vulgaris OX-19; 12.5 µg/mL (≈ 20.6 µM) in assay [1]; 25 µg/mL (≈ 41.2 µM) in assay [2] (setting [9]); 25 µg/mL (≈ 41.2 µM) in [3] (setting [10]); 3.12 µg/mL (≈ 5.15 µM) in [4]. The MIC in [5] (setting [11]) came to 50 µg/mL (≈ 82.4 µM); in [6] it was 3.12 µg/mL (≈ 5.15 µM); in assay [7] (setting [12]) it was 12.5 µg/mL (≈ 20.6 µM); in the assay with Proteus morgani Kono (strain J: Proteus morgani Kono), 12.5 µg/mL (≈ 20.6 µM); in [8] it was 12.5 µg/mL (≈ 20.6 µM); in the assay with Escherichia coli NIHJ (setting [13]) it was 0.1 µg/mL (≈ 0.165 µM). Besides, the MIC with Escherichia coli NIHJC-2 (setting [14]) and with Klebsiella pneumoniae was 12.5 µg/mL (≈ 20.6 µM) each time.

Consider `CC(=O)OCC1=C(C(=O)O)N2C(=O)C(NC(=O)C(=C(Cl)Cl)c3ccccc3)[C@H]2SC1` (stereo partly drawn) [Compound 38, 7-(2-dichloromethylene-2-phenylacetamido)-3-acetoxymethyl-3-cephem-4-carboxylic acid], for which the MIC in [2] (setting [9]) was more than 100 µg/mL; in assay [6], 1.56 µg/mL (≈ 3.31 µM); in the assay on Escherichia coli NIHJ (setting [13]) it was 3.1 µg/mL (≈ 6.58 µM).

For the compound `CC(=O)OCC1=C(C(=O)O)N2C(=O)[C@@H](NC(=O)Cc3cccs3)[C@H]2SC1` [Cephalo-thin, reference compound], the MIC in assay [2] (NCTC10490, read-out: minimum inhibition concentration) was more than 100 µg/mL; in [3] (read-out: minimum inhibition concentration, strain G: Proteus mirabillis B-30-2 IFO-3849), 12.5 µg/mL (≈ 31.5 µM); in assay [4] it was 50 µg/mL (≈ 126 µM); in [5] (IFO3736, read-out: minimum inhibition concentration), more than 100 µg/mL; in [7] (read-out: minimum inhibition concentration, strain D: Salmonella typhimurium 3173) it was 3.17 µg/mL (≈ 8.01 µM); with Proteus morgani Kono, more than 100 µg/mL. Moreover, the MIC was found to be 12.5 µg/mL (≈ 31.5 µM) in the assay with Escherichia coli NIHJ; 12.5 µg/mL (≈ 31.5 µM) in the assay on Escherichia coli NIHJC-2 (NIHJC2, read-out: minimum inhibition concentration); 25 µg/mL (≈ 63.1 µM) in the assay with Escherichia coli NIHJC-2 (setting [14]). The minimum inhibition concentration is 25 µg/mL and 12.5 µg/mL in assay [3] (setting [15]); more than 100 µg/mL in assay [4]; 6.25 µg/mL (≈ 15.8 µM) in [7] (setting [16]); 50 µg/mL (≈ 126 µM) with Escherichia coli NIHJC-2.

Consider `Cn1nnnc1SCC1=C(C(=O)O)N2C(=O)C(NC(=O)C(=C(Cl)Cl)c3csc(N)n3)C2SC1` (stereo not drawn) [6-(3), 7-[2-dichloromethylene-(2-aminothiazol-4-yl)-acetamido]-3-(l-methyl-lH-tetrazol-5-yl)thiomethyl-3-cephem-4-carboxylic acid sodium salt], for which the minimum inhibition concentration in the assay on Proteus rettgeri NIH-96 was less than 0.025 µg/mL; with Proteus vulgaris OX-19, 0.1 µg/mL; in assay [1] (sodium salt), 25 µg/mL; in [6], 0.78 µg/mL; in assay [7] (strain D: Salmonella typhimurium 3173, sodium salt), 3.125 µg/mL; with Escherichia coli NIHJ (strain K: Escherichia coli NIHJ, sodium salt), 0.05 µg/mL. Besides, the minimum inhibition concentration with Klebsiella pneumoniae (sodium salt) was 6.25 µg/mL.

For “7-[2-dichloromethylene-2-(2-aminothiazol-4-yl)acetamido]-3-(l-carboxymethyltetrazol-5-yl)thiomethyl-3-cephem-4-carboxylic acid disodium salt [7-(3)]”, the minimum inhibition concentration is less than 0.025 µg/mL in the assay on Proteus rettgeri NIH-96; 0.1 µg/mL in the assay with Proteus vulgaris OX-19; 12.5 µg/mL in [1]; 6.25 µg/mL in [2]; 1.56 µg/mL in assay [3] (setting [15]); 3.125 µg/mL in [4]. For the same compound, the minimum inhibition concentration in [5] was 25 µg/mL; in assay [6], 6.25 µg/mL; in assay [7] (setting [16]), 6.25 µg/mL; in the assay on Proteus morgani Kono (strain J: Proteus morgani Kono), 3.125 µg/mL; in assay [8], 12.5 µg/mL; in the assay with Escherichia coli NIHJ (setting [13]) it was less than 0.025 µg/mL. Further, the minimum inhibition concentration in the assay with Escherichia coli NIHJC-2 is 25 µg/mL; with Klebsiella pneumoniae it was 12.5 µg/mL.

Values taken from EP0048954A2, “Beta-lactam compounds, process for the preparation thereof and intermediate products for the preparation thereof” (SAGAMI CHEMICAL RESEARCH CENTER, priority 1980, dated 1982).
